“Also recorded” adds a separate entry of the source. Where a name gives a salt, the structure may show the parent alone.
Tests used:
[1] = tested on: human receptor tyrosine kinase RET; test: Yeast growth restoration assay, cells expressing RET (OD 600 nm); type: cell-based; conditions: 50 μM in the yeast culture; OD 600 nm light scattering; FIG. 3
Text: (§1) Selection of specific inhibition of Receptor Tyrosine Kinase activity in yeast.

[2] = target: T1, human receptor tyrosine kinase PDGFR-β (Homo sapiens, UniProt P09619); test: Yeast growth restoration assay, cells expressing PDGFR-β (OD 600 nm); type: cell-based; conditions: 50 μM in the yeast culture; OD 600 nm light scattering; FIG. 3
T1 construct: N-terminus of the cytoplasmic domains of c-Met (AA932-1366) and PDGFRβ (AA524-1067); myristoylation signal (membrane anchoring) (N); expressed in transfected cells; host or cells: yeast (S. cerevisiae preferred)
Text: as §1

T1 sequence (P09619 556-1099): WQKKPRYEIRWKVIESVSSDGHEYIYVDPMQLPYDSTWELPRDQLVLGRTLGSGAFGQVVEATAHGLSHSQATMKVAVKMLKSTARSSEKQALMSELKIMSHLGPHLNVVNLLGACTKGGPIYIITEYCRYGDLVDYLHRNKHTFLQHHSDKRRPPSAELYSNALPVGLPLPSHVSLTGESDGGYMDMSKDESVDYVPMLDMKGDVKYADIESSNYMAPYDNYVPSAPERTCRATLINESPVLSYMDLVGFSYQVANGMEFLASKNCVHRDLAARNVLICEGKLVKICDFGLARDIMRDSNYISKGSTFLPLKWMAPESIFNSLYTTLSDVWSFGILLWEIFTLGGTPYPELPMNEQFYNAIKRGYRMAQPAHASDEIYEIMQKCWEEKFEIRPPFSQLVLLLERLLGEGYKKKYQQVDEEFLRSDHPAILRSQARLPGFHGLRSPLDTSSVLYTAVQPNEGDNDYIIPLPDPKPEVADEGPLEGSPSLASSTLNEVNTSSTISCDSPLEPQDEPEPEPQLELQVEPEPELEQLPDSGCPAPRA

## Cc1ccc(NC(=O)c2ccc(CN3CCN(C)CC3)cc2)cc1Nc1nccc(-c2cccnc2)n1 [imatinib mesylate]
[1]
  restoration of growth of RET-expressing yeast cells: not growth of cells expressing RET
[2]
  restoration of growth of PDGFR-β-expressing yeast cells: restore growth under selective conditions; also recorded: specifically restores growth
